Laboratory results published in US5583115A, “Dialkyltiacumicin compounds” (Abbott Laboratories, priority 1995, dated 1996).
Values after ≈ are worked out from the molar mass of the structure shown.

How the values were obtained:
E. coli = assay: MIC agar dilution, aerobic and facultative bacteria; assay type: cell-based
Bacteriodes fragilis = assay: MIC agar dilution, anaerobic bacteria; assay type: cell-based
Veillonella parvula = assay: MIC agar dilution, anaerobic bacteria; assay type: cell-based; settings: Culture # 2479
S. pyogenes = assay: MIC agar dilution, aerobic and facultative bacteria
[1] = tested on: Acinetobacter calcoaceticus; assay: as above; settings: Culture # 1845
Mycobacterium smegmatis = assay: as above; settings: Culture # 5171

In the case of `CCc1c(Cl)c(OC)c(Cl)c(OC)c1C(=O)OC1C(C)OC(OCC2=CC=CCC(O)C(C)=CC(CC)C(OC3OC(C)(C)C(OC(=O)C(C)C)C(O)C3O)C(C)=CC(C)=CCC(C(C)O)OC2=O)C(OC)C1O` (stereo not drawn) [Example 2, 3"', 5"'-Di-O-methyltiacumicin B], the MIC (E. coli; DC-2, Culture # 1674) is reported as over 100 µg/mL, the MIC (E. coli; H560, Culture # 1675) is reported as over 100 µg/mL and the MIC (E. coli; Juhl, Culture # 1673) is reported as over 100 µg/mL. For the same compound, the MIC (E. coli; KNK437, Culture # 1676) was over 100 µg/mL, the MIC (E. coli; SS, Culture # 2489) was over 100 µg/mL and the MIC (Bacteriodes fragilis; Culture # 1756, Wilkins-Chalgren agar, 37° C., 48 hours) was over 2 µg/mL. It also gave an MIC (Bacteriodes fragilis; Culture # 1757) of over 2 µg/mL, an MIC (Bacteriodes fragilis; Culture # 1758) of over 2 µg/mL and an MIC (Bacteriodes fragilis; Culture # 1999) of over 2 µg/mL. For the same compound, the MIC (Veillonella parvula) was over 2 µg/mL, the MIC (S. pyogenes; Culture # 1671) was over 100 µg/mL and the MIC (S. pyogenes; const., Culture # 1672) was 25 µg/mL (≈ 23 µM). For the same compound, the MIC (S. pyogenes; inducible, Culture # 2548) was 25 µg/mL (≈ 23 µM), the MIC [1] was over 100 µg/mL and the MIC (Mycobacterium smegmatis) was 1.56 µg/mL (≈ 1.44 µM).
